Source: publication PMC7044277 (Nature Communications, 2020)
Several values for one entry are separate records, joined by “and”; a condition that tells them apart may be missing. Equal entries are not always repeated.

Key:
[1] = test system: serotonin receptor of Fig_S10h (subtype not given); assay: β-arrestin2 recruitment (Tango), agonist activity, source data Fig_S10h; format: cell-based, human; details: drug alone
DRD3 = DRD3 (Homo sapiens, UniProt P35462); assay: Gαi/o-mediated cAMP inhibition (GloSensor); format: cell-based; details: DRD3, cAMP inhibition
5HT2A = 5HT2A (Homo sapiens, UniProt P28223); assay: β-arrestin2 recruitment (Tango); format: cell-based; details: single replicate values
[2] = target: T1, DRD4 (D4.4 variant) wild-type (Homo sapiens, UniProt P21917); assay: Radioligand competition binding, [3H]-N-methylspiperone; details: DRD4; [3H]-methylspiperone (0.8-1.0 nM); read-out: Ki
T1 sequence (P21917 1-419): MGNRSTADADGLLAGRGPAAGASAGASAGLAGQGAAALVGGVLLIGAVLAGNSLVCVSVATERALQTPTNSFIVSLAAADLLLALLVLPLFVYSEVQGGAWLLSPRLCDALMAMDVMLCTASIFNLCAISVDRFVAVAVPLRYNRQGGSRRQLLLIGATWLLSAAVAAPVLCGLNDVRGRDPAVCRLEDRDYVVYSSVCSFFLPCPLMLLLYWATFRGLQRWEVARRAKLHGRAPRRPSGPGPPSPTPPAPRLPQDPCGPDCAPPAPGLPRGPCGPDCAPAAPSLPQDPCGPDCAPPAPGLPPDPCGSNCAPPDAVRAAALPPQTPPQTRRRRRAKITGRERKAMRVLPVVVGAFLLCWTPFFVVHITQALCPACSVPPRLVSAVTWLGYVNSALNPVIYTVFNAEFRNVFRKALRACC

[3] = test system: serotonin receptor (subtype not given; reference agonist serotonin); assay: β-arrestin2 recruitment (Tango), agonist activity, source data Fig_S10m; format: cell-based, human; details: drug alone
[4] = test system: serotonin receptor of Fig_S10i (subtype not given); assay: β-arrestin2 recruitment (Tango), agonist activity, source data Fig_S10i; format: cell-based, human; details: drug alone
5HT1A = target: T2, 5HT1A (Homo sapiens, UniProt P08908); assay: β-arrestin2 recruitment (Tango); format: cell-based; details: Fig_S10f, single replicates
T2 construct: expressed in transfected cells; host or cells: HTLA cells expressing TEV-fused β-arrestin2
T2 sequence (P08908 1-422): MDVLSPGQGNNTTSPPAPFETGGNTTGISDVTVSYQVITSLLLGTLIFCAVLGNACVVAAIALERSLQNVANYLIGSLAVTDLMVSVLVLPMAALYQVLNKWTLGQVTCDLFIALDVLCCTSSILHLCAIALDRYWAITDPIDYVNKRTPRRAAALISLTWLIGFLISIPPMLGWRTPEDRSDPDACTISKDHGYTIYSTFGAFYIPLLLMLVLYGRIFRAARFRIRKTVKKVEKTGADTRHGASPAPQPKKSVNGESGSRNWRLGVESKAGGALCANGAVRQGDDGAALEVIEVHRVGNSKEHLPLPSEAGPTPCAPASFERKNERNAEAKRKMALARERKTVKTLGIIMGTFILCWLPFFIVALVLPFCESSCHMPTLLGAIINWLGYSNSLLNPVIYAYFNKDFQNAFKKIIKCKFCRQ

5HT2A, sequence (P28223 whole entry): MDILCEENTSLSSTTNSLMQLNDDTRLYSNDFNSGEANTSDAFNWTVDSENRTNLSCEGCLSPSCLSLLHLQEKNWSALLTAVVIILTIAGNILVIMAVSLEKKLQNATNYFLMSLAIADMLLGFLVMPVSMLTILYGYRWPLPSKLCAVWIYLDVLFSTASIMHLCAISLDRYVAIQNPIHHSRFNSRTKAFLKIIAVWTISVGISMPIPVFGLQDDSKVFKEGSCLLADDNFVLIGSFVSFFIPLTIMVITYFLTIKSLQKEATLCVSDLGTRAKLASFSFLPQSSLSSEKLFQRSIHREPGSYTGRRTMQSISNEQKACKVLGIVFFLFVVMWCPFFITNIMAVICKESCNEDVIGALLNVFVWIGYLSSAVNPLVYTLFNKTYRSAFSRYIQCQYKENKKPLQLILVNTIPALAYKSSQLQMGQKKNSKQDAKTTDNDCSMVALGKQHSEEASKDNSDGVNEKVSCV
DRD3, sequence (P35462 whole entry): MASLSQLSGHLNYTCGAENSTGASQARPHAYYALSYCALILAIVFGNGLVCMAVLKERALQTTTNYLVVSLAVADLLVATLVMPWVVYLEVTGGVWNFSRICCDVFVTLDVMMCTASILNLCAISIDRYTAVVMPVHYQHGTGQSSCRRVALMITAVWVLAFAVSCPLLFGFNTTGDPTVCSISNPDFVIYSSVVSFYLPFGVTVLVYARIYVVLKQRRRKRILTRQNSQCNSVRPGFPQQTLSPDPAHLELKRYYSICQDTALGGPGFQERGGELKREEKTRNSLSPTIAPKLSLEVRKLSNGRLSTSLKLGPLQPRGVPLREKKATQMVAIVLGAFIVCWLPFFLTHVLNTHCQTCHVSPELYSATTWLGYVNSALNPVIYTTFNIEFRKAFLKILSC

In the case of `CCOc1cccc2cc([C@H](C)NCC3(O)CCCCC3)oc12` [O4SE6], the “response, single replicates of the concentration-response curve” value (from here on “response, single replicates”) ([1]; Log[Drug] -10) is reported as 15.0958 and 7.486 and 10.8542 and 5.527 and 29.223 and 0.999 and -10.921 and 11.0828 and -0.8457, the “response, single replicates” value ([1]; Log[Drug] -10.52) is reported as -0.8745 and -6.646 and -1.622 and 20.5398 and 42.3766 and 10.7909 and -7.069 and -20.3001 and 10.2879 and the “response, single replicates” value ([1]; Log[Drug] -11) is reported as -11.3698 and 19.5825 and 1.391 and 36.9549 and 6.363 and -10.581 and 12.6585 and -12.9389 and 3.331. For the same molecule, the “response, single replicates” value ([1]; Log[Drug] -11.52) was -4.741 and 3.94 and 12.3959 and 19.2666 and -9.551 and -8.707 and 10.8288 and -0.4553 and -7.722, the “response, single replicates” value ([1]; Log[Drug] -12) was -3.8669 and -1.214 and 2.909 and 15.2183 and 14.2098 and -8.421 and -4.75 and -12.1063 and 12.6538 and the EC50 (DRD3; agonist, read-out: EC50 ± SEM) was over 10 µM. The “G protein agonist activity” value (DRD3) was “no detectable agonist activity”, the “Fig_S10k dose-response, drug alone (agonist mode), β-arrestin2 recruitment” value (“Fig_S10k dose-response, drug alone” below) (5HT2A; Log[Drug] -6.52) was 0.09538 and the “Fig_S10k dose-response, drug alone” value (5HT2A; Log[Drug] -7) was 0.3962 and -0.2054 (2×) and 5.128 and 7.247 and 2.453 and 3.603 and 2.6312 and 1.871. For the same molecule, the “Fig_S10k dose-response, drug alone” value (5HT2A; Log[Drug] -7.52) was 1.849 and 5.363 and 7.4248 and 2.33 and -2.369 and -1.196 and 2.4436 and 3.608 and 1.304, the “Fig_S10k dose-response, drug alone” value (5HT2A; Log[Drug] -8) was 0.1101 and -1.394 and 0.08804 and 0.4387 and -1.323 and -0.5329 and 3.218 and 3.021 and 2.073 and the “Fig_S10k dose-response, drug alone” value (5HT2A; Log[Drug] -8.52) was 0.3815 and 3.632 and -0.1981 and 19.2051 and 7.825 and 6.317 and 2.439 and 3.208 and 2.251. For the same molecule, the “Fig_S10k dose-response, drug alone” value (5HT2A; Log[Drug] -9) was 0.6676 and 2.15 and 0.4035 and 0.1625 and 2.551 and 3.851 and 2.828 and 4.478 and 2.251, the “Fig_S10k dose-response, drug alone” value (5HT2A; Log[Drug] -9.52) was 4.806 and 0.08804 and -0.4842 and 4.631 and 0.2307 and -0.1755 and 1.9722 and 24.5707 and 1.991 and the “Fig_S10k dose-response, drug alone” value (5HT2A; Log[Drug] -10) was -0.2054 and -0.7704 and 0.7117 and -0.5849 and 0.2632 and -1.306 and 3.401 and 3.333 and 0.9043. The “Fig_S10k dose-response, drug alone” value (5HT2A; Log[Drug] -10.52) was -0.4696 and 0.1247 and -0.7704 and 2.297 and 0.5134 and 0.234 and 6.104 and 1.842 and 5.349, the “Fig_S10k dose-response, drug alone” value (5HT2A; Log[Drug] -11) was -0.4842 and -0.7704 and -1.0785 and -0.00325 and -1.534 and 4.039 and 3.002 and 2.646 and 1.477 and the “Fig_S10k dose-response, drug alone” value (5HT2A; Log[Drug] -11.52) was -0.2421 and 0.9685 and 5.092 and -0.6109 and 22.6335 and -1.787 and 6.47 and 2.973 and 3.016. For the same molecule, the “Fig_S10k dose-response, drug alone” value (5HT2A; Log[Drug] -12) was 13.3089 and 0.9391 and 1.555 and -1.157 and -0.9684 and -1.794 and 7.23 and 11.8669 and 5.71, the Ki [2] was over 10 µM and the “response, Fig_S10m, replicate values” ([3]; Log[Drug] -10) was -3 and -0.8547 and -1.711 and 1.274 and 0.6519 and 0.6372 and 3.446 and 2.684 and 1.5611. For the same molecule, the “response, Fig_S10m, replicate values” ([3]; Log[Drug] -10.52) was -1.057 and 0.5825 and 1.112 and 0.2883 and -0.05325 and 2.637 and -1.4637 and 2.006 and 9.099, the “response, Fig_S10m, replicate values” ([3]; Log[Drug] -11) was -3.4971 and -1.766 and 0.3518 and 1.196 and 0.9733 and 1.78 and -2.611 and -3.973 and 1.645 and the “response, Fig_S10m, replicate values” ([3]; Log[Drug] -11.52) was -2.165 and -1.698 and -2.094 and 0.786 and 2.079 and 0.9742 and -3.099 and -0.8266 and -0.3396. For the same molecule, the “response, Fig_S10m, replicate values” ([3]; Log[Drug] -12) was 0.1375 and -0.9459 and 1.244 and -0.4049 and 1.325 and 0.3957 and -1.831 and -2.73 and 1.919, the “response, single replicates” value ([4]; Log[Drug] -11.52) was -11.574 and -4.3 and 8.5185 and 5.043 and 17.6989 and -6.28 and -5.544 and 6.734 and -5.212 and the “response, single replicates” value ([4]; Log[Drug] -12) was -1.958 and 0.9753 and 5.65 and 9.245 and 10.4038 and -4.648 and 6.652 and -2.743 and 7.282. The “β-arrestin2 recruitment response, agonist mode (normalized)” value (5HT1A; Log[Drug] -9.52) was -0.8354 and -0.6725 and 0.6683 and 0.2383 and 1.852 and 0.7592 and 0.2273 and 0.7234 and 0.9859, the “β-arrestin2 recruitment response, agonist mode (normalized)” value (5HT1A; Log[Drug] -10) was 0.6642 and 0.6683 and -0.5096 and -0.1895 and -0.3206 and 1.295 and 0.9379 and 4.834 and 0.8483 and the “β-arrestin2 recruitment response, agonist mode (normalized)” value (5HT1A; Log[Drug] -10.52) was 0.8312 and -0.848 and -0.5013 and 0.469 and 0.1267 and -0.3585 and 11.6165 and 0.685 and 0.3585. For the same molecule, the “β-arrestin2 recruitment response, agonist mode (normalized)” value (5HT1A; Log[Drug] -11) was -0.188 and 0.8354 and -0.1713 and -0.4961 and -0.2339 and 0.4322 and 2.113 and 0.3457 and 0.4834, the “β-arrestin2 recruitment response, agonist mode (normalized)” value (5HT1A; Log[Drug] -11.52) was 1.3325 and -0.1754 and -0.6683 and -0.2719 and 3.032 and -0.4646 and -0.4129 and 1.767 and 1.504 and the “β-arrestin2 recruitment response, agonist mode (normalized)” value (5HT1A; Log[Drug] -12) was 0.1671 and -0.9983 and -0.6683 and -0.2567 and -0.0639 and 2.424 and -0.7778 and 0.7554 and 0.3457.
